Test results as given in article PMC10289903 (Investigational New Drugs, 2023).
Where two headings read alike, the source gives them in different places.

Test system: patients with locally advanced or metastatic solid tumors
Source text: This was a Phase Ib, multicenter, open-label, dose-finding clinical trial (NCT02610075). […] Three types of treatment schedules were investigated: cohorts bid 1, bid 2, qd 1.1, qd 2.1 and qd 3.1 received bid or qd treatment on a 5/9 schedule (5 days on treatment, followed by 9 days off) on a 14-day cycle. Cohorts qd 1.2, qd 2.2, and qd 3.2 received treatment on a 5/2 schedule (5 days on followed by 2 days off for 2 of 3 weeks) in a 21-day cycle. Cohorts qd 2.3 and qd 3.3 received treatment on a weekly 5/2 schedule in a 21-day cycle (Table 1). The highest dose level(s) at which less than one-third of evaluable patients (none of 3 patients or 1 of 6 patients) experienced a dose-limiting toxicity (DLT) was declared the MTD.
The per protocol analysis set was defined as a subset of the full analysis set, excluding subjects having an important protocol deviation, to be used for analyses of efficacy endpoints if appropriate.

C=CCn1c(=O)c2cnc(Nc3ccc(N4CCN(C)CC4)cc3)nc2n1-c1cccc(C(C)(C)O)n1 [adavosertib, Adavosertib]
Fifty: Number of serious AEs (SAEs) reported (in vivo)
9 (14.5) n (%): Cough (treatment-emergent AE) (human, in vivo) | Dyspnea (treatment-emergent AE) (human, in vivo) | Fall (treatment-emergent AE) (human, in vivo) | Myalgia (treatment-related AE) (human, in vivo) | Neutropenia (treatment-related AE) (human, in vivo) | Urinary tract infection (treatment-emergent AE) (human, in vivo)
2 [3.2%] n [%]: Treatment-related SAE: pneumonia (all cohorts (N=62)) | Treatment-related SAE: dehydration (human, in vivo)
4 (6.5%) n (%): AEs leading to treatment discontinuation, patients (human, in vivo) | Dehydration leading to dose interruption, patients (human, in vivo) | Diarrhea leading to dose interruption, patients (human, in vivo) | Fatigue leading to dose interruption, patients (human, in vivo) | Neutropenia leading to dose reduction, patients (human, in vivo) | Thrombocytopenia leading to dose interruption, patients (human, in vivo)
15 (24.2) n (%): Abdominal pain (treatment-emergent AE) (human, in vivo) | Constipation (treatment-emergent AE) (human, in vivo)
2 (40.0) n (%): Alanine aminotransferase increased (treatment-emergent AE) (qd 1.1: 200 mg qd 5/9 (n=5)) | Asthenia (treatment-emergent AE) (qd 1.1: 200 mg qd 5/9 (n=5)) | Asthenia (treatment-related AE) (qd 1.1: 200 mg qd 5/9 (n=5))
6 (100) n (%): Any AE (treatment-emergent) (bid 2: 150 mg bid 5/9 (n=6)) | Any treatment-related AE (bid 2: 150 mg bid 5/9 (n=6))
3 (50.0) n (%): Any treatment-related grade ≥ 3 AE (bid 2: 150 mg bid 5/9 (n=6)) | Nausea (treatment-emergent AE) (bid 2: 150 mg bid 5/9 (n=6)) | Nausea (treatment-related AE) (bid 2: 150 mg bid 5/9 (n=6))
2 (33.3) n (%): Back pain (treatment-emergent AE) (bid 2: 150 mg bid 5/9 (n=6)) | Constipation (treatment-emergent AE) (bid 2: 150 mg bid 5/9 (n=6)) | Decreased appetite (treatment-emergent AE) (bid 2: 150 mg bid 5/9 (n=6)) | Decreased appetite (treatment-related AE) (bid 2: 150 mg bid 5/9 (n=6)) | Dyspnea (treatment-emergent AE) (bid 2: 150 mg bid 5/9 (n=6)) | Neutropenia (treatment-emergent AE) (bid 2: 150 mg bid 5/9 (n=6)) | Neutropenia (treatment-related AE) (bid 2: 150 mg bid 5/9 (n=6)) | Pyrexia (treatment-emergent AE) (bid 2: 150 mg bid 5/9 (n=6)) | Vomiting (treatment-emergent AE) (bid 2: 150 mg bid 5/9 (n=6)) | Vomiting (treatment-related AE) (bid 2: 150 mg bid 5/9 (n=6))
13 (21.0) n (%): Back pain (treatment-emergent AE) (human, in vivo)
11 (17.7) n (%): Anemia (treatment-related AE) (human, in vivo) | Decreased appetite (treatment-related AE) (human, in vivo) | Dehydration (treatment-related AE) (human, in vivo) | Hypokalemia (treatment-emergent AE) (human, in vivo)
5 (83.3) n (%): Any grade ≥ 3 AE (bid 2: 150 mg bid 5/9 (n=6)) | Diarrhea (treatment-emergent AE) (bid 2: 150 mg bid 5/9 (n=6)) | Diarrhea (treatment-related AE) (bid 2: 150 mg bid 5/9 (n=6)) | Fatigue (treatment-emergent AE) (bid 2: 150 mg bid 5/9 (n=6))
1 (20.0) n (%): Abdominal pain (treatment-emergent AE) (qd 1.1: 200 mg qd 5/9 (n=5)) | Any grade ≥ 3 AE (qd 1.1: 200 mg qd 5/9 (n=5)) | Any treatment-related grade ≥ 3 AE (qd 1.1: 200 mg qd 5/9 (n=5)) | Constipation (treatment-emergent AE) (qd 1.1: 200 mg qd 5/9 (n=5)) | Constipation (treatment-related AE) (qd 1.1: 200 mg qd 5/9 (n=5)) | Diarrhea (treatment-emergent AE) (qd 1.1: 200 mg qd 5/9 (n=5)) | Diarrhea (treatment-related AE) (qd 1.1: 200 mg qd 5/9 (n=5))
17 (27.4%) n (%): AEs leading to dose reductions, patients (human, in vivo)
1 (16.7) n (%): Abdominal pain (treatment-emergent AE) (bid 2: 150 mg bid 5/9 (n=6)) | Anemia (treatment-emergent AE) (bid 2: 150 mg bid 5/9 (n=6)) | Anemia (treatment-related AE) (bid 2: 150 mg bid 5/9 (n=6)) | Asthenia (treatment-emergent AE) (bid 2: 150 mg bid 5/9 (n=6)) | Constipation (treatment-related AE) (bid 2: 150 mg bid 5/9 (n=6)) | Cough (treatment-emergent AE) (bid 2: 150 mg bid 5/9 (n=6)) | Dizziness (treatment-emergent AE) (bid 2: 150 mg bid 5/9 (n=6)) | Dyspepsia (treatment-emergent AE) (bid 2: 150 mg bid 5/9 (n=6)) | Dyspepsia (treatment-related AE) (bid 2: 150 mg bid 5/9 (n=6)) | Edema peripheral (treatment-emergent AE) (bid 2: 150 mg bid 5/9 (n=6)) | Fall (treatment-emergent AE) (bid 2: 150 mg bid 5/9 (n=6)) | Headache (treatment-emergent AE) (bid 2: 150 mg bid 5/9 (n=6)) | Hypokalemia (treatment-emergent AE) (bid 2: 150 mg bid 5/9 (n=6)) | Insomnia (treatment-emergent AE) (bid 2: 150 mg bid 5/9 (n=6)) | Urinary tract infection (treatment-emergent AE) (bid 2: 150 mg bid 5/9 (n=6))
25 (40.3%) n (%): AEs leading to dose interruptions, patients (human, in vivo) | Patients with serious AEs (human, in vivo)
4 (66.7) n (%): Dehydration (treatment-emergent AE) (bid 2: 150 mg bid 5/9 (n=6)) | Dehydration (treatment-related AE) (bid 2: 150 mg bid 5/9 (n=6)) | Fatigue (treatment-related AE) (bid 2: 150 mg bid 5/9 (n=6))
5 (100) n (%): Any AE (treatment-emergent) (qd 1.1: 200 mg qd 5/9 (n=5)) | Any treatment-related AE (qd 1.1: 200 mg qd 5/9 (n=5))
1 [1.6%] n [%]: Treatment-related SAE: thrombocytopenia (all cohorts (N=62)) | Treatment-related SAE: anemia (human, in vivo) | Treatment-related SAE: febrile neutropenia (human, in vivo)
14 (22.6) n (%): Decreased appetite (treatment-emergent AE) (human, in vivo) | Dizziness (treatment-emergent AE) (human, in vivo) | Vomiting (treatment-related AE) (human, in vivo)
0 n (%): Abdominal pain (treatment-related AE) (bid 2: 150 mg bid 5/9 (n=6)) | Alanine aminotransferase increased (treatment-emergent AE) (bid 2: 150 mg bid 5/9 (n=6)) | Asthenia (treatment-related AE) (bid 2: 150 mg bid 5/9 (n=6)) | Muscle spasms (treatment-emergent AE) (bid 2: 150 mg bid 5/9 (n=6)) | Myalgia (treatment-emergent AE) (bid 2: 150 mg bid 5/9 (n=6)) | Myalgia (treatment-related AE) (bid 2: 150 mg bid 5/9 (n=6)) | Pneumonia (treatment-emergent AE) (bid 2: 150 mg bid 5/9 (n=6)) | Rash (treatment-emergent AE) (bid 2: 150 mg bid 5/9 (n=6)) | Thrombocytopenia (treatment-emergent AE) (bid 2: 150 mg bid 5/9 (n=6)) | Thrombocytopenia (treatment-related AE) (bid 2: 150 mg bid 5/9 (n=6)) | Abdominal pain (treatment-related AE) (qd 1.1: 200 mg qd 5/9 (n=5)) | Anemia (treatment-emergent AE) (qd 1.1: 200 mg qd 5/9 (n=5)) | Anemia (treatment-related AE) (qd 1.1: 200 mg qd 5/9 (n=5)) | Back pain (treatment-emergent AE) (qd 1.1: 200 mg qd 5/9 (n=5)) | Cough (treatment-emergent AE) (qd 1.1: 200 mg qd 5/9 (n=5)) | Decreased appetite (treatment-emergent AE) (qd 1.1: 200 mg qd 5/9 (n=5)) | Decreased appetite (treatment-related AE) (qd 1.1: 200 mg qd 5/9 (n=5)) | Dehydration (treatment-emergent AE) (qd 1.1: 200 mg qd 5/9 (n=5)) | Dehydration (treatment-related AE) (qd 1.1: 200 mg qd 5/9 (n=5))
16 (25.8) n (%): Anemia (treatment-emergent AE) (human, in vivo) | Edema peripheral (treatment-emergent AE) (human, in vivo) | Vomiting (treatment-emergent AE) (human, in vivo)
8 (12.9) n (%): Alanine aminotransferase increased (treatment-emergent AE) (human, in vivo) | Dyspepsia (treatment-emergent AE) (human, in vivo) | Headache (treatment-emergent AE) (human, in vivo) | Muscle spasms (treatment-emergent AE) (human, in vivo)
10 (16.1) n (%): Asthenia (treatment-emergent AE) (human, in vivo) | Neutropenia (treatment-emergent AE) (human, in vivo) | Pyrexia (treatment-emergent AE) (human, in vivo) | Thrombocytopenia (treatment-emergent AE) (human, in vivo) | Thrombocytopenia (treatment-related AE) (human, in vivo)
10: Number of treatment-related serious AEs (human, in vivo)
5 (8.1%) n (%): Thrombocytopenia leading to dose reduction, patients (human, in vivo)
12 (19.4) n (%): Myalgia (treatment-emergent AE) (human, in vivo)
one: Deaths attributed to disease progression and an SAE of treatment-unrelated grade 5 sepsis, patients (cohort qd 3.3)
